# Source: US4870081A (priority 1986, dated 1989)
# Where a name gives a salt, the structure may show the parent alone. Read-outs that look alike come from different tables or passages of the source.
# Assays:
# [1] = biological target: muscarinic receptors (rat cerebral cortex); assay: Radio ligand binding: displacement of the muscarinic agonist 3H-OXO-M (3H-Oxotremorine-M); design: species or system Hooded Lister rats; conditions: 2 nM 3H-OXO-M, 2 mM magnesium chloride, 37° C., 30 min
# [2] = biological target: muscarinic receptors (rat cerebral cortex); assay type: binding, Hooded Lister rats; conditions: 0.27 nM 3H-QNB, 37° C., 30 min
SMILES,IC50 [1] [nM],IC50 [2] [nM]
"COC(=O)C1=CC2CCCN(C1)C2 (racemic) [E8, (±) Methyl 1-azabicyclo[3.3.1]non-3-en-3-yl carboxylate hydrochloride]",118,4100
"CC(=O)O[C@@H]1C[C@H]2CCCN(C2)C1 (relative stereo) [E1, (±) exo-1-Azabicyclo[3.3.1]non-3-yl acetate hydrochloride]",81,3900
"CCO[C@@H]1C[C@H]2CCCN(C2)C1 (relative stereo) [E2, (±) exo-3-Ethoxy-1-azabicyclo[3.3.1]nonane oxalate]",210,6500
"NC(=O)O[C@@H]1C[C@H]2CCCN(C2)C1 (relative stereo) [E3, (±) exo-1-Azabicyclo[3.3.1]non-3-yl carbamate hydrochloride]",103,36000
"COC(=O)[C@@H]1C[C@H]2CCCN(C2)C1 (relative stereo) [E4, (±) exo-Methyl 1-azabicyclo[3.3.1]non-3-yl carboxylate oxalate]",81,3900
"COC(=O)[C@@H]1C[C@H]2CCCCN(C2)C1 (relative stereo) [E5, (±) exo-Methyl 1-azabicyclo[4.3.1]dec-8-yl carboxylate oxalate]",153,3200
"CC(=O)O[C@H]1CN2CCC[C@H]1C2 (relative stereo) [E6, (±) exo-1-Azabicyclo[3.2.1]oct-6-yl acetate hydrochloride]",82,27000
"COC(=O)[C@H]1CN2CCC[C@H]1C2 (relative stereo) [E7, (±) exo-Methyl 1-azabicyclo[3.2.1]oct-6-yl carboxylate hydrochloride]",510,65000
"COC[C@@H]1C[C@H]2CCCN(C2)C1 (relative stereo) [E9, (±) exo-3-Methoxymethyl-1-azabicyclo[3.3.1]nonane oxalate salt]",1300,38000
"C#CCOC(=O)[C@@H]1C[C@H]2CCCN(C2)C1 (relative stereo) [E10, (±) exo-Propargyl 1-azabicyclo[3.3.1]non-3-yl-carboxylate oxylate salt]",40,510
"CNC(=O)O[C@@H]1C[C@H]2CCCN(C2)C1 (relative stereo) [E11, (±) exo-1-Azabicyclo[3.3.1]non-3-yl-N-methylcarbamate hydrochloride salt]",460,5200
"CC(=O)O[C@H]1CN2CC[C@H]1C2 (relative stereo) [E12, (±) exo-1-Azabicyclo[2.2.1]hept-3-yl acetate oxalate salt]",175,46000
"CCO[C@H]1CN2CC[C@H]1C2 (relative stereo) [E13, (±) exo-3-Ethoxy-1-azabicyclo[2.2.1]heptane oxalate salt]",510,54000
"CC(=O)O[C@@H]1C[C@H]2CCN(C2)C1 (relative stereo) [E14, (±) exo-1-Azabicyclo[3.2.1]oct-3-yl acetate hydrochloride salt]",38,14000
"COC(=O)[C@@H]1C[C@H]2CCN(C2)C1 (relative stereo) [E15, (±) exo-Methyl-1-azabicyclo[3.2.1]oct-3-yl carboxylate hydrochloride]",80,11000
"COC(=O)[C@H]1CN2CC[C@H]1C2 (relative stereo) [E16, (±) exo-Methyl 1-azabicyclo[2.2.1]hept-3-yl carboxylate oxalate salt]",190,60000
"CCC(=O)O[C@H]1CN2CCC[C@H]1C2 (relative stereo) [E17, (±) exo-1-Azabicyclo[3.2.1]oct-6-yl propionate hydrochloride]",410,7300
"CCCO[C@H]1CN2CCC[C@H]1C2 (relative stereo) [E18, (±) exo-6-n-Propoxy-1-azabicyclo[3.2.1]octane hydrochloride]",630,15500
"CCO[C@H]1CN2CCC[C@H]1C2 (relative stereo) [E19, (±) exo-6-Ethoxy-1-azabicycl9[3.2.1]octane hydrochloride]",460,64000
"CNC(=O)O[C@H]1CN2CCC[C@H]1C2 (relative stereo) [E20, (±) exo-1-Azabicyclo[3.2.1]oct-6-yl-N-methylcarbamate oxalate salt]",1900,42000
"CCC(=O)O[C@@H]1C[C@H]2CCCN(C2)C1 (relative stereo) [E21, (±) exo-1-Azabicyclo[3.3.1]non-3-yl propionate hydrochloride salt]",367,1000
"CO[C@@H]1C[C@H]2CCCN(C2)C1 (relative stereo) [E22, (±) exo-3-Methoxy-1-azabicyclo[3.3.1]nonane oxalate salt]",5000,170000
"CCCO[C@@H]1C[C@H]2CCCN(C2)C1 (relative stereo) [E23, (±) exo-3-n-Propoxy-1-azabicyclo[3.3.1]nonane oxalate salt]",160,1200
"CN(C)C(=O)O[C@@H]1C[C@H]2CCCN(C2)C1 (relative stereo) [E24, (±) exo-1-Azabicyclo[3.3.1]non-3-yl-N,N-dimetnyl-carbamate hydrochloride]",255,1800
"CCOC(=O)[C@@H]1C[C@H]2CCCN(C2)C1 (relative stereo) [E25, (±) exo-Ethyl 1-azabicyclo[3.3.1]non-3yl carboxylate oxalate salt]",65,620
